Our source for the Ki values is BindingDB's records for doi:10.1016/0960-894X(96)00081-9 (1996).

What is called pKi is the negative decadic logarithm of the Ki, by convention in mol/L. A low value points to a large Ki.

The structures appear in SMILES notation. pKi: −log10 of the molar value.

In assay [1] the target is T1, Alpha-1A/Alpha-1B/Alpha-1D adrenergic receptor (Rattus norvegicus, UniProt P15823+P43140+P23944).
T1 sequence (P15823 whole entry): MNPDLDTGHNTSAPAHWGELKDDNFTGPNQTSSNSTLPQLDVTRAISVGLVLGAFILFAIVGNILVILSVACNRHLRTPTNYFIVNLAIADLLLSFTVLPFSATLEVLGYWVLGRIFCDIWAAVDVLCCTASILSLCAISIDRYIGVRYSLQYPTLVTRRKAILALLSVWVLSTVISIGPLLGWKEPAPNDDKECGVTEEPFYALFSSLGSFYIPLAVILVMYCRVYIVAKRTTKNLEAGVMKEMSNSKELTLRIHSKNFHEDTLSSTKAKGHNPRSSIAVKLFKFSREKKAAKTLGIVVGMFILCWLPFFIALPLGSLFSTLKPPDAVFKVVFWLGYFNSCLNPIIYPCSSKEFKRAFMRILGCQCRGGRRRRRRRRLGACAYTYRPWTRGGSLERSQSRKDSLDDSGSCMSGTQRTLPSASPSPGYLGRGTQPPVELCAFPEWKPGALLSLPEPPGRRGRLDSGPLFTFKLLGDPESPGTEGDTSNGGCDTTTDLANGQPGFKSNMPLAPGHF
T1 sequence (P43140 whole entry): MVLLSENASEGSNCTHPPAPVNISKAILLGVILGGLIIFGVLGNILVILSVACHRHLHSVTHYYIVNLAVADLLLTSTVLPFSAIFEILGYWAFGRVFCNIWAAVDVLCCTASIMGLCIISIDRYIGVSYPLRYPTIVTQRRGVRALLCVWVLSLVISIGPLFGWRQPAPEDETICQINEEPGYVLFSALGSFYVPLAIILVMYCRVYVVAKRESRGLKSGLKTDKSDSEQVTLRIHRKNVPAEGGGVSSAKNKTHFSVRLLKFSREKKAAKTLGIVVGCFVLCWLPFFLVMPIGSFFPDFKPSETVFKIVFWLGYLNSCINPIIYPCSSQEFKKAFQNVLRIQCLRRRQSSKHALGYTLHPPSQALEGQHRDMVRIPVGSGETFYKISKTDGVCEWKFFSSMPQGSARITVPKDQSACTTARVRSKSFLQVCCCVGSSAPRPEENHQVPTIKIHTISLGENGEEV
T1 sequence (P23944 whole entry): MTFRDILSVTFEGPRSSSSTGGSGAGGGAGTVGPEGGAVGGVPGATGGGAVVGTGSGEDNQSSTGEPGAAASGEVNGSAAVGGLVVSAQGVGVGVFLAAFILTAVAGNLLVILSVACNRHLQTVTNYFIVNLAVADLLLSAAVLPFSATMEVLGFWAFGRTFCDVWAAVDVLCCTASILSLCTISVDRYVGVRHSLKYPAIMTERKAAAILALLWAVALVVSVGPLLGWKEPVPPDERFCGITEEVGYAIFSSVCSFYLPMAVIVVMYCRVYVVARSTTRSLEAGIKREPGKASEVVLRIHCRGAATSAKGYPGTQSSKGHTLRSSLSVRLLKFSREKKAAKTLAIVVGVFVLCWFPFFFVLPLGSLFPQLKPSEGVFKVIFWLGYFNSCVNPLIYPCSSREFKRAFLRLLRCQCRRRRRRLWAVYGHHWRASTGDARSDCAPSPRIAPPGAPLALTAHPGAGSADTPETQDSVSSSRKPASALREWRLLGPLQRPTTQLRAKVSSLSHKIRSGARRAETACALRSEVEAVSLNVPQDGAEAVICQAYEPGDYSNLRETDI
Briefly: Binding affinity at Alpha-1 adrenergic receptor in rat cerebral cortex membranes by [3H]prazosin displacement.

The target of assay [2] is T2, 5-hydroxytryptamine receptor 1A (Rattus norvegicus, UniProt P19327).
T2 sequence (P19327 whole entry): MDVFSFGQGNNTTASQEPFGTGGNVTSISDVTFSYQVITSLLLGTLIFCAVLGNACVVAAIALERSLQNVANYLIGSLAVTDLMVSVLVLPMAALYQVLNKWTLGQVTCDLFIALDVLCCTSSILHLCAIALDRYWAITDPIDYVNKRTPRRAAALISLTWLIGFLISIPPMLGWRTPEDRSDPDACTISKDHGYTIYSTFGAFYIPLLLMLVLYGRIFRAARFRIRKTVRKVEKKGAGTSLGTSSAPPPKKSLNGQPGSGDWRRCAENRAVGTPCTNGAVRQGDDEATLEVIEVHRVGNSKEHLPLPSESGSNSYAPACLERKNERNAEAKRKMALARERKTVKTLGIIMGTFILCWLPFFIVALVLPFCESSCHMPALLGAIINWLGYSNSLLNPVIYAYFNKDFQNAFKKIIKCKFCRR
Put plainly: ChEBML_841.
Method: Compound was evaluated for its ability to displace [3H]8-OH-DPAT from serotonin 5-hydroxytryptamine 1A receptor in rat cerebral cortex membranes

With `COc1ccccc1N1CCN(Cn2c(O)c3n(c2=O)CCCC3)CC1` [2-[4-(2-Methoxy-phenyl)-piperazin-1-ylmethyl]-tetrahydro-imidazo[1,5-a]pyridine-1,3-dione], in assay [1], the pKi is less than 6.00. The same measure, in the same setting: in the case of `O=c1n(CCCCN2CCN(c3ccccc3)CC2)c(O)c2n1CCCC2` [2-[4-(4-Phenyl-piperazin-1-yl)-butyl]-tetrahydro-imidazo[1,5-a]pyridine-1,3-dione] it was 7.72. Consider `O=c1n(CCCN2CCN(c3cccc(Cl)c3)CC2)c(O)c2n1CCCC2` [2-{3-[4-(3-Chloro-phenyl)-piperazin-1-yl]-propyl}-tetrahydro-imidazo[1,5-a]pyridine-1,3-dione], for which the results for the pKi in assay [2] and in assay [1] were 7.27 and 7.74, respectively.
